Test results from patent US11236354B2, “Glyphosate-n-acetyltransferase (GLYAT) sequences and methods of use” (PIONEER HI-BRED INTERNATIONAL, INC., priority 2013, dated 2022).

Target: GLYAT variant SEQ ID NO:3 (derived from SEQ ID NO:1 and 2) (Bacillus licheniformis, UniProt Q65LG7, A28V/D131E/E119K/E14D/E65Q/E67K/E68K/E83D/G37R/I132T/I135V/I15L/I19V/I2L/I53V/I91V/K101R/K144R/K58Q/L105M/L106I/L26I/L97I/M75V/R47G/R92K/T89S/V114A/Y130F/Y45F)
Assay: Substrate saturation kinetic analysis of purified GLYAT
Conditions: pH 7.0
Description: E. coli cultures in LB or 2×YT were grown overnight at 37° C. to saturation. The cells were used as a 2% inoculum into fresh media. When OD reached 0.6, IPTG was added to 0.2 mM and growth was continued for at least 6 hours. Cells were harvested by centrifugation and stored at −80° C. Cells were lysed with BPER (Pierce) containing 1 mM dithiothreitol, 0.2 mg/ml lysozyme, 2 mg/ml protease inhibitor cocktail (Sigma bacterial cell cocktail, P8465) and endonuclease. Lysate supernatants were passed through a column of NHS-activated Agarose (Thermo, #26197) derivatized with coenzyme A. Columns were washed with 25 mM Hepes, pH 7, containing progressively higher concentrations of KCl, then eluted with 25 mM Hepes, 100 mM KCl, 10% ethylene glycol and 1 mM acetyl CoA. Purity as evaluated by polyacrylamide gel electrophoresis was deemed consistently high enough to be assumed to be 100%. Protein concentration was determined with the Bradford assay using a large-scale lot of produced GLYAT protein as standard.
Kinetic parameters for various substrates were obtained using a range of seven substrate concentrations plus a blank containing none of the varied substrate. The non-varied substrate was present at a saturating concentration. Six-microliter aliquots of 50-fold concentrated stock solutions of the varied substrate were placed in a 96-well assay plate (Greiner BioOne UV-Star). Reactions were started with the addition of 294 ul of 25 mM Hepes, pH 7.0, 100 mM KCL, 10% ethylene glycol, the non-varied substrate and 10 to 200 nM enzyme. Absorbance was monitored for one minute with a Spectramax 384 Plus plate reader (Molecular Devices). If the amino acid present at position 30 (29 if alanine is absent at position 2) was cysteine, absorbance was monitored at 235 nm, which directly detects cleavage of the sulfoester bond of acetyl CoA. If the amino acid present at position 30 (29 if alanine is absent at position 2) was isoleucine, 0.5 mM 5,5′-dithiobis-(2-nitrobenzoic acid), which reacts with the coenzyme A thiol generated in the enzyme catalyzed reaction, was included in the reaction mix and absorbance was monitored at 412 nm. Initial rates were processed by the Softmax software to obtain kinetic parameters, using the double-reciprocal transformation.

SMILES: N[C@@H](CC(=O)O)C(=O)O [aspartate]
- Asp as % of glyph (kcat/KM asp / kcat/KM glyph): 0.403%
